Converted amounts (≈) assume the structure as drawn. Read-outs that look alike come from different tables or passages of the source.
Tests used:
Lactobacillus plantarum = experiment: Minimal Inhibitory Concentration (MIC), two-fold dilution series in 96 well microplate, antimicrobial used alone; type: cell-based; details: for MIC: Lactiplantibacillus plantarum; for Propionic Acid MIC (QB) used alone: sodium propionate per text
From the text: While there are various methods known to individuals skilled in the art for measuring levels of antimicrobial activity, in the following examples the endpoint used is known as the Minimal Inhibitory Concentration, or MIC. This is the lowest concentration of a substance or substances which can achieve complete inhibition of growth.
In order to determine the Minimal Inhibitory Concentration, a two-fold dilution series of the antimicrobial is constructed with the dilutions being made in growth media. The dilutions are made in a 96 well microplate such that each well has a final volume of 280 μl of media and antimicrobial. The first well has, for example, a concentration of 1000 μM antimicrobial, the second 500 μM, the third 250 μM, and so forth, with the 12th and final well in the row having no antimicrobial at all and serving as a positive growth control. After the dilution series is constructed the wells receive an inoculum of microbe suspended in growth media such that the final concentration of microbes in the well is ˜5×10^5 cfu/ml. In these examples the test microbe used is Lactobacillus plantarum. The cultures are incubated at 37° C. for 18-24 hours, and the wells scored as positive or negative for growth based on a visual examination for turbid wells, with turbidity being an indicator of growth.

Weisella confusa = details: background statement; cited from earlier work
fermentation = details: background statement; cited from earlier work

O=C(O)CC(O)(CC(=O)O)C(=O)O [Citric Acid, citric acid] gave an MIC (Lactobacillus plantarum; pH 5, Example 2, read-out: Citric Acid MIC (QA) used alone) of 25 mg/mL (≈ 130 mM), an MIC (Lactobacillus plantarum; pH 5, Example 4, read-out: Citric acid MIC (QA) used alone) of 25 mg/mL (≈ 130 mM) and an MIC (Lactobacillus plantarum; pH 6, Example 1, 37° C., 18-24 hours, read-out: Citric Acid MIC (QA) used alone) of 100 mg/mL (≈ 520 mM). For the same molecule, the “Citric Acid MIC (QA) used alone” value (Lactobacillus plantarum; pH 5, Example 2) was 25000 ppm, the “Citric Acid MIC (QA) used alone” value (Lactobacillus plantarum; pH 5, Example 4) was 25000 ppm and the “Citric Acid MIC (QA) used alone” value (Lactobacillus plantarum; pH 6, Example 1, 37° C., 18-24 hours) was 100000 ppm. For the same molecule, the “Citric Acid MIC (QA) used alone” value (Lactobacillus plantarum; pH 6, Example 3) was 100000 ppm and the “Citric Acid MIC (QA) used alone” value (Lactobacillus plantarum; pH 6, Example 3, listed as citric acid) was 100,000 ppm.

In the case of O=C([O-])c1ccccc1.[K+] [Potassium Benzoate, potassium benzoate], the “Potassium benzoate MIC (QB) used alone” value (Lactobacillus plantarum; pH 5, Example 4, listed as Potassium benzoate) is reported as 3125 ppm, the “Potassium benzoate MIC (QB) used alone” value (Lactobacillus plantarum; pH 5, Example 4, listed as potassium benzoate) is reported as 3,125 ppm and the “Potassium benzoate MIC (QB) used alone” value (Lactobacillus plantarum; pH 6, Example 3) is reported as 100000 ppm. The “Potassium benzoate MIC (QB) used alone” value (Lactobacillus plantarum; pH 6, Example 3, listed as potassium benzoate) was 100,000 ppm.

For CCC(=O)[O-].[Na+] [Sodium Propionate, sodium propionate], the “Sodium Propionate MIC (QB) used alone” value (Lactobacillus plantarum; pH 5, Example 2) was 100000 ppm, the “Sodium Propionate MIC (QB) used alone” value (Lactobacillus plantarum; pH 5, Example 2, listed as sodium propionate) was 100,000 ppm and the “Propionic Acid MIC (QB) used alone” value (Lactobacillus plantarum; pH 6, Example 1) was 100,000 ppm. For the same molecule, the “Propionic Acid MIC (QB) used alone” value (Lactobacillus plantarum; pH 6, Example 1, listed as Propionic Acid) was 100000 ppm.

In the case of Virginiamycin, the “concentration required to inhibit growth of Weisella confusa” value (Weisella confusa) is given as “over 25 mg/L” and the “concentration that will suppress fermentation” value (fermentation) is given as “over 2 mg/L”.
